How the values were obtained:
NADH dehydrogenase = test: Electron flow assay, isolated liver mitochondria; format: biochemical, mouse
Protocol: Animal studies were performed under approved UCLA animal research protocols. Mitochondria from 3-month-old C57BL/6 mice were isolated. Briefly, livers were extracted, minced at 4° C. in MSHE+BSA (70 mM sucrose, 210 mM mannitol, 5 mM HEPES, 1 mM EGTA, and 0.5% fatty acid free BSA, pH 7.2), and rinsed several times to remove blood. All subsequent steps were performed on ice or at 4° C. The tissue was disrupted in 10 volumes of MSHE+BSA with a glass Dounce homogenizer (5-6 strokes) and the homogenate was centrifuged at 800×g for 10 minutes to remove tissue debris and nuclei. The supernatant was decanted through a cell strainer and centrifuged at 8,000×g for 10 minutes. […] Isolated mitochondrial respiration was measured by running coupling and electron flow assays as described. […] After basal readings, the sequential injections were as follows: 2 μM rotenone (Complex I inhibitor), 10 mM succinate (Complex II substrate), 4 μM antimycin A (Complex III inhibitor), and 10 mM/100 μM ascorbate/tetramethylphenylenediamine (Complex IV substrate). […]

C2C12 Cells = test: Cellular ROS measurement with H2DCF-DA; format: cell-based, mouse; conditions: 3 hours of drug treatment
Protocol: Measurement of ROS. C2C12 cells were seeded in 96-well plates at density of 250,000 cells/mL. Reactive oxygen species (ROS) levels were measured using 2′, 7′-dichlorodihydrofluorescein diacetate (H2DCF-DA) after 3 hours of drug treatment.

C57BL/6 male mice = test: Transverse aortic constriction (TAC) induced heart failure and cardiac hypertrophy; format: in vivo, mouse
Protocol: Surgical procedure was performed one day before treatment with vehicle or α-KB. Cardiac output was assessed 3 weeks post-treatment by determining the cardiac ejection fraction (EF) by echo.
Transverse aortic constriction (TAC) in mice was used to induce pressure overload-induced heart failure and cardiac hypertrophy. TAC surgical procedure was performed one day before treatment with vehicle or α-KB. C57BL/6 male mice were treated with α-KB at 30 mg/kg body weight per day in drinking water. Cardiac output was assessed 3 weeks post-treatment by determining the cardiac ejection fraction (EF) measured by Echo.

## CCC(=O)C(=O)O [α-KB, α-ketobutyrate]
NADH dehydrogenase
  respiration in electron flow assay: only NADH dehydrogenase related respiration is inhibited
C2C12 Cells
  cellular ROS: increases the cellular ROS
C57BL/6 male mice
  mortality: appeared to decrease mortality
C57BL/6 male mice; end of experiment (5 weeks), Mean, STEDV
  heart (mg)/body (g) ratio: 10.72±1.98
